Tested on: A498 complex spheroids with HUVEC/MSC, growth
Experiment: Anticancer human tumor A498 cell line growth inhibition [AhR];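 also: seven day exposure starting three days after spheroid seeding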;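 as to viability, T/C: luminescence signal used as a surrogate for viable cells; luminescence viability scaled so 100% equals DMSO vehicle wells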
Details: for IC50: curve of first compound; for viability, T/C: stronger effect = lower value
Method in brief: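 Complex tumor spheroids co-cultured with HUVEC and human MSC stroma; AhR antagonists tested in combination with standard-of-care and investigational agents. Top concentration at or near clinical Cmax (else 10 microM), half-log dilutions; growth expressed as percent test/control.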

[1] = second compound 0.1 µM, first compound 0.0316 µM
[2] = second compound 0.1 µM, first compound 0.1 µM
[3] = second compound 0.1 µM, first compound 0.316 µM
[4] = second compound 0.1 µM, first compound 1 µM
[5] = second compound 0.1 µM, first compound 3.16 µM
[6] = second compound 0.1 µM, first compound 10 µM
[7] = second compound 0.316 µM, first compound 0.0316 µM
[8] = second compound 0.316 µM, first compound 0.1 µM
[9] = second compound 0.316 µM, first compound 0.316 µM
[10] = second compound 0.316 µM, first compound 1 µM
[11] = second compound 0.316 µM, first compound 3.16 µM
[12] = second compound 0.316 µM, first compound 10 µM
[13] = second compound 1 µM, first compound 0.0316 µM
[14] = second compound 1 µM, first compound 0.1 µM
[15] = second compound 1 µM, first compound 0.316 µM
[16] = second compound 1 µM, first compound 1 µM
[17] = second compound 1 µM, first compound 3.16 µM
[18] = second compound 1 µM, first compound 10 µM
[19] = second compound 3.16 µM, first compound 0.0316 µM
[20] = second compound 3.16 µM, first compound 0.1 µM
[21] = second compound 3.16 µM, first compound 0.316 µM
[22] = second compound 3.16 µM, first compound 1 µM
[23] = second compound 3.16 µM, first compound 3.16 µM
[24] = second compound 3.16 µM, first compound 10 µM
[25] = second compound 10 µM, first compound 0.0316 µM
[26] = second compound 10 µM, first compound 0.1 µM
[27] = second compound 10 µM, first compound 0.316 µM
[28] = second compound 10 µM, first compound 1 µM
[29] = second compound 10 µM, first compound 3.16 µM
[30] = second compound 10 µM, first compound 10 µM

In the case of `CC(C)CC(NC(=O)C(Cc1ccccc1)NC(=O)c1cnccn1)B(O)O` (stereo not given) + CC(CO)NC(=O)c1cc(-c2ccc(Cl)cc2)nn(-c2cnn(C)c2)c1=O, the IC50 (second compound 0.1 µM) is reported as 2.95 nM, the IC50 (second compound 0.316 µM) is reported as 3.2 nM and the IC50 (second compound 1 µM) is reported as 2.67 nM. It also gave an IC50 (second compound 3.16 µM) of 2.13 nM, an IC50 (second compound 10 µM) of 1.57 nM and a viability, T/C (second compound 0.1 µM, first compound 0.000949 µM) of 91.1%. The viability, T/C (second compound 0.1 µM, first compound 0.003 µM) was 49.4%, the viability, T/C (second compound 0.1 µM, first compound 0.00949 µM) was 3.71% and the viability, T/C (second compound 0.1 µM, first compound 0.03 µM) was 0.58%. It also gave a viability, T/C (second compound 0.1 µM, first compound 0.0949 µM) of 2.33%, a viability, T/C (second compound 0.1 µM, first compound 0.3 µM) of 1.23% and a viability, T/C (second compound 0.316 µM, first compound 0.000949 µM) of 90%. The viability, T/C (second compound 0.316 µM, first compound 0.003 µM) was 52.6%, the viability, T/C (second compound 0.316 µM, first compound 0.00949 µM) was 4.62% and the viability, T/C (second compound 0.316 µM, first compound 0.03 µM) was 1.25%. The viability, T/C (second compound 0.316 µM, first compound 0.0949 µM) was 0.46%, the viability, T/C (second compound 0.316 µM, first compound 0.3 µM) was 1.14% and the viability, T/C (second compound 1 µM, first compound 0.000949 µM) was 87.2%. The viability, T/C (second compound 1 µM, first compound 0.003 µM) was 45.8%, the viability, T/C (second compound 1 µM, first compound 0.00949 µM) was 4.69% and the viability, T/C (second compound 1 µM, first compound 0.03 µM) was 1.75%. For the same molecule, the viability, T/C (second compound 1 µM, first compound 0.0949 µM) was 1.82%, the viability, T/C (second compound 1 µM, first compound 0.3 µM) was 2.86% and the viability, T/C (second compound 3.16 µM, first compound 0.000949 µM) was 79.4%. The viability, T/C (second compound 3.16 µM, first compound 0.003 µM) was 37.6%, the viability, T/C (second compound 3.16 µM, first compound 0.00949 µM) was 5.03% and the viability, T/C (second compound 3.16 µM, first compound 0.03 µM) was 1.11%. It also gave a viability, T/C (second compound 3.16 µM, first compound 0.0949 µM) of 3.08%, a viability, T/C (second compound 3.16 µM, first compound 0.3 µM) of 0.24% and a viability, T/C (second compound 10 µM, first compound 0.000949 µM) of 65.7%. For the same molecule, the viability, T/C (second compound 10 µM, first compound 0.003 µM) was 29.6%, the viability, T/C (second compound 10 µM, first compound 0.00949 µM) was 4.31% and the viability, T/C (second compound 10 µM, first compound 0.03 µM) was 0.81%. It also gave a viability, T/C (second compound 10 µM, first compound 0.0949 µM) of 2.81% and a viability, T/C (second compound 10 µM, first compound 0.3 µM) of 0.32%.
With `COc1cc(Nc2ncc3c(n2)-c2ccc(Cl)cc2C(c2c(F)cccc2OC)=NC3)ccc1C(=O)O` + CC(CO)NC(=O)c1cc(-c2ccc(Cl)cc2)nn(-c2cnn(C)c2)c1=O the IC50 (second compound 0.1 µM) was 1490 nM, the IC50 (second compound 0.316 µM) was 1360 nM and the IC50 (second compound 1 µM) was 892 nM. For the same molecule, the IC50 (second compound 3.16 µM) was 1060 nM, the IC50 (second compound 10 µM) was 455 nM and the viability, T/C [1] was 62.6%. For the same molecule, the viability, T/C [2] was 69.4%, the viability, T/C [3] was 63.5% and the viability, T/C [4] was 50.2%. The viability, T/C [5] was 45.3%, the viability, T/C [6] was 33.2% and the viability, T/C [7] was 70%. It also gave a viability, T/C [8] of 67.9%, a viability, T/C [9] of 64.5% and a viability, T/C [10] of 50.7%. For the same molecule, the viability, T/C [11] was 43.3%, the viability, T/C [12] was 32.3% and the viability, T/C [13] was 60.1%. The viability, T/C [14] was 67.5%, the viability, T/C [15] was 61.1% and the viability, T/C [16] was 47%. The viability, T/C [17] was 41.5%, the viability, T/C [18] was 33.5% and the viability, T/C [19] was 55.1%. For the same molecule, the viability, T/C [20] was 59.9%, the viability, T/C [21] was 59.1% and the viability, T/C [22] was 47.2%. It also gave a viability, T/C [23] of 42.2%, a viability, T/C [24] of 30.8% and a viability, T/C [25] of 49.6%. The viability, T/C [26] was 55%, the viability, T/C [27] was 53.3% and the viability, T/C [28] was 44.8%. It also gave a viability, T/C [29] of 37.4% and a viability, T/C [30] of 34.9%.
`NS(=O)(=O)OCC1CC(n2ccc3c(NC4CCc5ccccc54)ncnc32)CC1O` (stereo not given) + CC(CO)NC(=O)c1cc(-c2ccc(Cl)cc2)nn(-c2cnn(C)c2)c1=O showed an IC50 (second compound 0.1 µM) of 268 nM, an IC50 (second compound 0.316 µM) of 263 nM and an IC50 (second compound 1 µM) of 310 nM. It also gave an IC50 (second compound 3.16 µM) of 245 nM, an IC50 (second compound 10 µM) of 196 nM and a viability, T/C [1] of 94.8%. For the same molecule, the viability, T/C [2] was 86%, the viability, T/C [3] was 42.4% and the viability, T/C [4] was 30%. For the same molecule, the viability, T/C [5] was 22.4%, the viability, T/C [6] was 17.7% and the viability, T/C [7] was 90.9%. It also gave a viability, T/C [8] of 81.8%, a viability, T/C [9] of 42.9% and a viability, T/C [10] of 27.2%. For the same molecule, the viability, T/C [11] was 23.3%, the viability, T/C [12] was 17.6% and the viability, T/C [13] was 92%. The viability, T/C [14] was 82.4%, the viability, T/C [15] was 47.5% and the viability, T/C [16] was 30.8%. The viability, T/C [17] was 23.4%, the viability, T/C [18] was 19.8% and the viability, T/C [19] was 92.5%. For the same molecule, the viability, T/C [20] was 73.6%, the viability, T/C [21] was 41.5% and the viability, T/C [22] was 29.3%. The viability, T/C [23] was 20.6%, the viability, T/C [24] was 18.3% and the viability, T/C [25] was 79%. For the same molecule, the viability, T/C [26] was 64.1%, the viability, T/C [27] was 39.5% and the viability, T/C [28] was 26%. The viability, T/C [29] was 20.9% and the viability, T/C [30] was 17.6%.
In the case of `O=C(C=Cc1cccc(S(=O)(=O)Nc2ccccc2)c1)NO` + CC(CO)NC(=O)c1cc(-c2ccc(Cl)cc2)nn(-c2cnn(C)c2)c1=O, the IC50 (second compound 0.1 µM) is reported as 812 nM, the IC50 (second compound 0.316 µM) is reported as 719 nM and the IC50 (second compound 1 µM) is reported as 704 nM. For the same molecule, the IC50 (second compound 3.16 µM) was 612 nM, the IC50 (second compound 10 µM) was 298 nM and the viability, T/C [1] was 82.8%. The viability, T/C [2] was 79.2%, the viability, T/C [3] was 63.6% and the viability, T/C [4] was 42.5%. The viability, T/C [5] was 32.6%, the viability, T/C [6] was 9.53% and the viability, T/C [7] was 80.2%. It also gave a viability, T/C [8] of 74.3%, a viability, T/C [9] of 64.5% and a viability, T/C [10] of 39.4%. It also gave a viability, T/C [11] of 31.9%, a viability, T/C [12] of 9.41% and a viability, T/C [13] of 80.5%. The viability, T/C [14] was 80.8%, the viability, T/C [15] was 61% and the viability, T/C [16] was 42.2%. It also gave a viability, T/C [17] of 28.1%, a viability, T/C [18] of 9.7% and a viability, T/C [19] of 73.1%. It also gave a viability, T/C [20] of 72.8%, a viability, T/C [21] of 58.6% and a viability, T/C [22] of 39.6%. The viability, T/C [23] was 28.8%, the viability, T/C [24] was 6.66% and the viability, T/C [25] was 67%. It also gave a viability, T/C [26] of 56.6%, a viability, T/C [27] of 53.8% and a viability, T/C [28] of 33.7%. The viability, T/C [29] was 25.6% and the viability, T/C [30] was 6.56%.
